We go through 18 molecules from US20230271964A1, “5-AMINO-8-(4-PYRIDYL)-[1,2,4]TRIAZOLO[4,3-C]PYRIMIDIN-3-ONE COMPOUNDS FOR USE AGAINST CANCER” (ASTRAZENECA AB, priority 2020, published 2023).

The target in test [1] is human adenosine A1 receptor (Homo sapiens (Human), UniProt P30542). Description: Adenosine receptor inhibition binding assay, [3H]DPCPX, A1 receptor membranes. The following applies: 1 nM [3H]DPCPX, 25° C., 1 h, Ki from IC50 by Cheng-Prusoff; for Ki: read-out: A1 pKi (converted). How it is done:
(§1) Inhibition binding assays were performed using 0.2 µg of membranes prepared from HEK293 cells infected with BacMam human adenosine A2A receptor or 1.4 µg of membranes prepared from HEK293 cells infected with BacMam human adenosine A1 receptor. Membranes were incubated in 50 mM Tris-HCl (HEK293-hA2A; pH 7.4) or 50 mM Tris-HCl, 100 mM NaCl, 10 mM MgCl2 (CHO-hA1; pH 7.4) in the presence of varying concentrations of test compound and 1 nM [^3H]ZM241385 (HEK293-hA2A) or [^3H]DPCPX (CHO-hA1) at 25° C. for 1 h. The assay was then terminated by rapid filtration onto GF/B grade Unifilter plates using a TomTec cell harvester, followed by 5 × 0.5 ml washes with ddH2O. Nonspecific binding was defined in the presence of 1 µM CGS 15943 (HEK293-hA2A) or 1 µM DPCPX (CHO-hA1). Bound radioactivity was determined by liquid scintillation counting and inhibition curves were analysed using a four-parameter logistic equation. IC50 values were converted to Ki values with the Cheng-Prusoff equation using a KD value derived from saturation binding studies.

The target of test [2] is human adenosine A2A receptor (Homo sapiens (Human), UniProt P29274). Description: Adenosine receptor inhibition binding assay, [3H]ZM241385, HEK293 A2A receptor membranes. Conditions: 1 nM [3H]ZM241385, HEK293-hA2A membranes, 25° C., 1 h, Ki from IC50 by Cheng-Prusoff; for Ki: read-out: A2A pKi (converted). The method, then:
as §1

Chain of human adenosine A2A receptor (P29274 whole entry): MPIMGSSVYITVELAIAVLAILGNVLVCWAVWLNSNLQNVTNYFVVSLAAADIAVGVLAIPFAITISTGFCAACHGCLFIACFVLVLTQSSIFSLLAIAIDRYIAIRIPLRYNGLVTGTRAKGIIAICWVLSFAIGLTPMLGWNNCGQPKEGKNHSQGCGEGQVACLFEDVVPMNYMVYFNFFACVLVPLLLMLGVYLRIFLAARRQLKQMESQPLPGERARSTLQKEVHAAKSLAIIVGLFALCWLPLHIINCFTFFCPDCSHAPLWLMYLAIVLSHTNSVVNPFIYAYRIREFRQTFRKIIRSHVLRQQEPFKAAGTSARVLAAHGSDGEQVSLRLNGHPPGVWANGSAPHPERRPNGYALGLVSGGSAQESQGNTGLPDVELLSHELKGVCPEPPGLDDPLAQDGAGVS
Chain of human adenosine A1 receptor (P30542 whole entry): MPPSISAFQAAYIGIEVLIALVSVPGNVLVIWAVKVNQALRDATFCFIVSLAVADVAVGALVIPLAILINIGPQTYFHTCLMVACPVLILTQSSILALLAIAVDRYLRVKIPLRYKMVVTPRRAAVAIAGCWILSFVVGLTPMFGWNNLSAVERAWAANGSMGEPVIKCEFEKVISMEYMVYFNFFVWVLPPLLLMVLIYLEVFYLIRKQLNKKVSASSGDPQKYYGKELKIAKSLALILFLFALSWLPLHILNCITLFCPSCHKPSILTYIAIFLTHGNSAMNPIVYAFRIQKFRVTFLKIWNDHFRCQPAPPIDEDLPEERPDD

With `Cc1cc(-c2c(-c3ccccc3)nc(N)n3c(=O)n(Cc4nn[nH]c4C)nc23)cc(C)n1` [Example 1-29, 5-amino-8-(2,6-dimethylpyridin-4-yl)-2-((5-methyl-1H-1,2,3-triazol-4-yl)methyl)-7-phenyl-[1,2,4]triazolo[4,3-c]pyrimidin-3(2H)-one], in test [1], the “A1 pKi” value was 7.0. Further, the “A2A pKi” value in test [2] came to 8.6.

Consider `Cc1cc(-c2c(-c3ccccc3)nc(N)n3c(=O)n(Cc4cnn(C)n4)nc23)cc(C)n1` [Example 1-30, 5-amino-8-(2,6-dimethyl-4-pyridyl)-2-[(2-methyltriazol-4-yl)methyl]-7-phenyl-[1,2,4]triazolo[4,3-c]pyrimidin-3-one], for which the “A1 pKi” value in test [1] is 6.6. For the same molecule, in test [2], the “A2A pKi” value is 8.9.

Consider `Cc1cc(-c2c(-c3ccc(F)cc3)nc(N)n3c(=O)n(Cc4nc(C)oc4C)nc23)cc(C)n1` [Example 1-32, 5-amino-2-[(2,5-dimethyloxazol-4-yl)methyl]-8-(2,6-dimethyl-4-pyridyl)-7-(4-fluorophenyl)-[1,2,4]triazolo[4,3-c]pyrimidin-3-one], for which the “A1 pKi” value in test [1] is recorded as 7.0. In test [2], the “A2A pKi” value stood at 9.5.

In the case of `COc1cccc(-c2nn(Cc3ccccc3)cc2Cn2nc3c(-c4cc(C)nc(C)c4)c(-c4ccccc4)nc(N)n3c2=O)c1` [Example 1-33, 5-amino-2-[[1-benzyl-3-(3-methoxyphenyl)pyrazol-4-yl]methyl]-8-(2,6-dimethyl-4-pyridyl)-7-phenyl-[1,2,4]triazolo[4,3-c]pyrimidin-3-one], in test [1], the “A1 pKi” value stood at 7.1. For the same molecule, the “A2A pKi” value in test [2] worked out at 8.1.

In the case of `Cc1ocnc1Cn1nc2c(-c3cc(C)[n+]([O-])c(C)c3)c(-c3ccccc3)nc(N)n2c1=O` [Example 1-34, 5-amino-8-(2,6-dimethyl-1-oxido-pyridin-1-ium-4-yl)-2-[(5-methyloxazol-4-yl)methyl]-7-phenyl-[1,2,4]triazolo[4,3-c]pyrimidin-3-one], the “A1 pKi” value in test [1] is on record as 7.5. Further, the “A2A pKi” value in test [2] was 9.2.

Take `Cc1cc(-c2c(-c3ccccc3)nc(N)n3c(=O)n(Cc4ncoc4C)nc23)cc(CO)n1` [Example 1-39, 5-amino-8-[2-(hydroxymethyl)-6-methyl-4-pyridyl]-2-[(5-methyloxazol-4-yl)methyl]-7-phenyl-[1,2,4]triazolo[4,3-c]pyrimidin-3-one]: the “A1 pKi” value in test [1] turned out to be 6.8. For the same molecule, the “A2A pKi” value in test [2] is reported as 9.5.

In the case of `Cc1cc(-c2c(-c3ccccc3)nc(N)n3c(=O)n(Cc4ncco4)nc23)cc(CO)n1` [Example 1-40, 5-amino-8-[2-(hydroxymethyl)-6-methyl-4-pyridyl]-2-(oxazol-2-ylmethyl)-7-phenyl-[1,2,4]triazolo[4,3-c]pyrimidin-3-one], the “A1 pKi” value in test [1] worked out at 6.9. In test [2], the “A2A pKi” value worked out at 8.8.

As to `Cc1cc(-c2c(-c3ccccc3)nc(N)n3c(=O)n(Cc4nccn4C)nc23)cc(CO)n1` [Example 1-41, 5-amino-8-[2-(hydroxymethyl)-6-methyl-4-pyridyl]-2-[(1-methylimidazol-2-yl)methyl]-7-phenyl-[1,2,4]triazolo[4,3-c]pyrimidin-3-one], the “A1 pKi” value in test [1] is reported as 7.2. Besides, the “A2A pKi” value in test [2] came to 9.1.

Consider `Cc1cc(-c2c(-c3ccccc3)nc(N)n3c(=O)n(Cc4cocn4)nc23)cc(CO)n1` [Example 1-42, 5-amino-8-[2-(hydroxymethyl)-6-methyl-4-pyridyl]-2-(oxazol-4-ylmethyl)-7-phenyl-[1,2,4]triazolo[4,3-c]pyrimidin-3-one], for which the “A1 pKi” value in test [1] turned out to be 6.7. The “A2A pKi” value in test [2] worked out at 8.5.

Consider `Cc1cc(-c2c(-c3ccccc3)nc(N)n3c(=O)n(Cc4c(C)ncn4C)nc23)cc(CO)n1` [Example 1-44, 5-amino-2-[(3,5-dimethylimidazol-4-yl)methyl]-8-[2-(hydroxymethyl)-6-methyl-4-pyridyl]-7-phenyl-[1,2,4]triazolo[4,3-c]pyrimidin-3-one], for which the “A1 pKi” value in test [1] stood at 6.8. Moreover, in test [2], the “A2A pKi” value is reported as 8.4.

Take `Cc1cc(-c2c(-c3ccccc3)nc(N)n3c(=O)n(Cc4ccn(C)n4)nc23)cc(CO)n1` [Example 1-45, 5-amino-8-[2-(hydroxymethyl)-6-methyl-4-pyridyl]-2-[(1-methylpyrazol-3-yl)methyl]-7-phenyl-[1,2,4]triazolo[4,3-c]pyrimidin-3-one]: the “A1 pKi” value in test [1] is listed as 7.2. The “A2A pKi” value in test [2] is reported as 9.3.

As for `[2H]c1c([2H])c([2H])c(-c2nc(N)n3c(=O)n(Cc4ncoc4C)nc3c2-c2cc(C)nc(CO)c2)c([2H])c1[2H]` [Example 1-47, 5-amino-8-[2-(hydroxymethyl)-6-methyl-4-pyridyl]-2-[(5-methyloxazol-4-yl)methyl]-7-(2,3,4,5,6-pentadeuteriophenyl)-[1,2,4]triazolo[4,3-c]pyrimidin-3-one], the figures for the Ki in test [1] and in test [2] were 158 nM and 0.316 nM, respectively.

With `[2H]c1c([2H])c([2H])c(-c2nc(N)n3c(=O)n(Cc4nccn4C)nc3c2-c2cc(C)nc(CO)c2)c([2H])c1[2H]` [Example 1-48, 5-amino-8-[2-(hydroxymethyl)-6-methyl-4-pyridyl]-2-[(1-methylimidazol-2-yl)methyl]-7-(2,3,4,5,6-pentadeuteriophenyl)-[1,2,4]triazolo[4,3-c]pyrimidin-3-one], the Ki in test [1] was 158 nM; in test [2], 1.26 nM.

For the molecule `[2H]c1c([2H])c([2H])c(-c2nc(N)n3c(=O)n(Cc4cocn4)nc3c2-c2cc(C)nc(CO)c2)c([2H])c1[2H]` [Example 1-49, 5-amino-8-[2-(hydroxymethyl)-6-methyl-4-pyridyl]-2-(oxazol-4-ylmethyl)-7-(2,3,4,5,6-pentadeuteriophenyl)-[1,2,4]triazolo[4,3-c]pyrimidin-3-one], the results for the Ki in test [1] and in test [2] were 316 nM and 1.58 nM, respectively.

In the case of `Cc1ocnc1Cn1nc2c(-c3cc(Cl)nc(CO)c3)c(-c3ccccc3)nc(N)n2c1=O` [Example 1-54, 5-amino-8-[2-chloro-6-(hydroxymethyl)-4-pyridyl]-2-[(5-methyloxazol-4-yl)methyl]-7-phenyl-[1,2,4]triazolo[4,3-c]pyrimidin-3-one], in test [1], the “A1 pKi” value was determined as 7.2. Moreover, in test [2], the “A2A pKi” value is recorded as 9.7.

For `[2H]c1c([2H])c([2H])c(-c2nc(N)n3c(=O)n(Cc4nccn4C)nc3c2-c2cc(Cl)nc(CO)c2)c([2H])c1[2H]` [Example 1-56, 5-amino-8-[2-chloro-6-(hydroxymethyl)-4-pyridyl]-2-[(1-methylimidazol-2-yl)methyl]-7-(2,3,4,5,6-pentadeuteriophenyl)-[1,2,4]triazolo[4,3-c]pyrimidin-3-one], the Ki is 5.01 nM in test [1] and 0.158 nM in test [2].

`[2H]c1c([2H])c([2H])c(-c2nc(N)n3c(=O)n(Cc4ncoc4C)nc3c2-c2cc(Cl)nc(CO)c2)c([2H])c1[2H]` [Example 1-57, 5-amino-8-[2-chloro-6-(hydroxymethyl)-4-pyridyl]-2-[(5-methyloxazol-4-yl)methyl]-7-(2,3,4,5,6-pentadeuteriophenyl)-[1,2,4]triazolo[4,3-c]pyrimidin-3-one]: the Ki is 126 nM in test [1] and 0.1 nM in test [2].

`Cc1ocnc1Cn1nc2c(-c3cc(Cl)nc(CO)c3)c(-c3ccc(F)cc3)nc(N)n2c1=O` [Example 1-59, 5-amino-8-[2-chloro-6-(hydroxymethyl)-4-pyridyl]-7-(4-fluorophenyl)-2-[(5-methyloxazol-4-yl)methyl]-[1,2,4]triazolo[4,3-c]pyrimidin-3-one]: in test [1], the “A1 pKi” value is reported as 6.8. Also, the “A2A pKi” value in test [2] stood at 9.9.
